# Source: patent US20250152547A1, “COMPOSITIONS FOR DELIVERY OF LADOSTIGIL” (priority 2019, published 2025)
# How the values were obtained:
# [1] = Concentration of ladostigil in brain (cortex) of rats after oral or rectal administration (LC-MS/MS); assay type: in vivo; conditions: male, Wistar, rat, read-out: Concentration of ladostigil in brain (cortex), mean ± STD (coefficient of variation)
# [2] = Blood levels of ladostigil after oral administration, detection time and inter subject variability; assay type: in vivo, humans and rodent species
# Method: Ladostigil is well absorbed from the gastro intestinal tract and can be detected in the blood within 15 minutes after oral administration in humans and rodent species. However, the inter subject variability in these blood levels at peak times after administration is very high with coefficients of variation of more than 100% irrespective of the dose administered. (Table 1). This is undesirable and could exacerbate any variability in the response to treatment by ladostigil of potential patients. The wide inter individual variation in blood levels may explain why the therapeutic effect of the drug in the clinical trial was not more pronounced.
# [3] = Concentration of ladostigil in plasma of rats after oral or rectal administration (LC-MS/MS); assay type: in vivo; conditions: rat
# Method: Methods: Male Wister rats weighing 250-270g were used for these experiments. […] In other rats, the same dose of ladostigil was administered via a cannula gently inserted into the rectum and pushed forward to reach the colon. […] The brain was removed, and the cortex carefully dissected and stored at-80° C. until further analysis. Blood was collected in heparinized Eppendorf tubes, centrifuged at 4° C., 20,800 g for 10 min and the plasma was stored at −80° C. until further analysis.
# (§1) Samples were prepared for LC-MS analysis after precipitating the proteins in plasma and cortical extracts with methanol as described in Moradov et al. (2015). Briefly, rivastigmine 750 ng/ml (internal standard) was added to 50 μl of plasma or supernatant after brain homogenization and ladostigil was extracted with HPLC grade MeOH. 75 μl of double distilled water (DDW) was added to 150 μl of the supernatant to give a final ratio of DDW:MeOH 1:1. The samples were filtered through […] GHP membranes and injected into the LC-MS machine. LC-MS/MS analysis was also performed as described in Moradov et al. (2015).
# (§2) Ladostigil and rivastigmine were detected by an AB Sciex (Framingham, MA, USA) Triple Quad™ 5500 mass spectrometer in positive ion mode by electrospray ionization (ESI) and a multiple reaction monitoring (MRM) mode of acquisition. Data acquisition and analysis were performed on a Dell Optiplex 960 computer with Analyst 1.6.2 software distributed by AB Sciex. Quantitative calibration (0-100 ng/ml) was performed before every batch of samples. The calibration curve (y=a+bx) was obtained by linear least-squares regression of the measured peak area (y) versus the concentration added to the biological matrix (x). The limit of quantification (LOQ) of ladostigil in plasma and cortex was 50 pg/ml.
# [4] = Concentration of ladostigil in plasma of human subjects after a single oral dose (LC/MS/MS); assay type: in vivo, humans; conditions: read-out: Concentration of ladostigil in plasma, mean ± STD (coefficient of variation)
# [5] = Concentration of ladostigil in brain (cortex) of rats after oral or rectal administration (LC-MS/MS); assay type: in vivo; conditions: male, Wistar, rat, read-out: Concentration of ladostigil in brain (cortex), mean ± STD (coefficient of variation); remark: listed apart in the source
# Method: Methods: Male Wister rats weighing 250-270g were used for these experiments. Ladostigil was administered by gavage at a dose of 5 mg/kg (volume 0.25-0.27ml). In other rats, the same dose of ladostigil was administered via a cannula gently inserted into the rectum and pushed forward to reach the colon. The rats were anesthetized with isofluorane and sacrificed by decapitation at 0, 15, 30, 60 or 120 min after ladostigil administration. The brain was removed, and the cortex carefully dissected and stored at-80° C. until further analysis. Blood was collected in heparinized Eppendorf tubes, centrifuged at 4° C., 20,800 g for 10 min and the plasma was stored at −80° C. until further analysis.
# as §1, §2
# [6] = oral administration (gavage) 5 mg/kg
# [7] = other: rectal administration, rectal administration 5 mg/kg
# [8] = normal healthy subjects aged 18-40, single oral dose 50 mg
# [9] = normal healthy subjects aged 18-40, single oral dose 100 mg
compound,measurement,setting,value
"C#CCN[C@@H]1CCc2ccc(OC(=O)N(C)CC)cc21 [ladostigil, 6-(N-ethyl, N-methyl, carbamyloxy)-N propargyl-1(R)-aminoindan, tartarate]",concentration at 180 min,[1]; [6],2.9 ng/g
same,concentration at 180 min,[1]; [7],2.8 ng/g
same,Coefficient of variation of blood levels (inter subject variability),"[2]; at peak times after oral administration, irrespective of the dose",more than 100%
same,Time after which ladostigil can be detected in the blood,"[2]; oral administration, humans and rodent species",≤ 15 min
same,concentration at 15 min,"[3]; male, Wistar, other: rectal administration, rats, rectal administration 5 mg/kg, 15 min, read-out: Concentration of ladostigil in plasma, mean ± STD (coefficient of variation)",60.6 ng/mL
same,concentration at 30 min,"[3]; male, Wistar, other: rectal administration, rats, rectal administration 5 mg/kg, 30 min, read-out: Concentration of ladostigil in plasma, mean ± STD (coefficient of variation)",47.2 ng/mL
same,concentration at 60 min,"[3]; male, Wistar, other: rectal administration, rats, rectal administration 5 mg/kg, 60 min, * significantly higher than after oral treatment p < 0.05, read-out: Concentration of ladostigil in plasma, mean ± STD (coefficient of variation)",33.7 ng/mL
same,concentration at 120 min,"[3]; male, Wistar, other: rectal administration, rats, rectal administration 5 mg/kg, 120 min, * significantly higher than after oral treatment p < 0.05, read-out: Concentration of ladostigil in plasma, mean ± STD (coefficient of variation)",14.1 ng/mL
same,concentration at 180 min,"[3]; male, Wistar, other: rectal administration, rats, rectal administration 5 mg/kg, 180 min, * significantly higher than after oral treatment p < 0.05, read-out: Concentration of ladostigil in plasma, mean ± STD (coefficient of variation)",13.9 ng/mL
same,concentration at 15 min,"[3]; male, Wistar rats, single oral dose 5 mg/kg, 15 min (Table 1), read-out: Concentration of ladostigil in plasma, mean ± STD (coefficient of variation)",53.7 ng/mL
same,concentration at 30 min,"[3]; male, Wistar rats, single oral dose 5 mg/kg, 30 min (Table 1), read-out: Concentration of ladostigil in plasma, mean ± STD (coefficient of variation)",36.4 ng/mL
same,concentration at 60 min,"[3]; male, Wistar rats, single oral dose 5 mg/kg, 60 min (Table 1), read-out: Concentration of ladostigil in plasma, mean ± STD (coefficient of variation)",8.3 ng/mL
same,concentration at 120 min,"[3]; male, Wistar rats, single oral dose 5 mg/kg, 120 min (Table 1), read-out: Concentration of ladostigil in plasma, mean ± STD (coefficient of variation)",4.9 ng/mL
same,concentration at 180 min,"[3]; male, Wistar rats, single oral dose 5 mg/kg, 180 min (Table 1), read-out: Concentration of ladostigil in plasma, mean ± STD (coefficient of variation)",2.4 ng/mL
same,concentration at 15 min,"[3]; Wistar rats, single oral dose 1 mg/kg, 15 min, read-out: Concentration of ladostigil in plasma, mean ± STD (coefficient of variation)",18.7 ng/mL
same,concentration at 30 min,"[3]; Wistar rats, single oral dose 1 mg/kg, 30 min, read-out: Concentration of ladostigil in plasma, mean ± STD (coefficient of variation)",12.3 ng/mL
same,concentration at 60 min,"[3]; Wistar rats, single oral dose 1 mg/kg, 60 min, read-out: Concentration of ladostigil in plasma, mean ± STD (coefficient of variation)",6.7 ng/mL
same,concentration at 120 min,"[3]; Wistar rats, single oral dose 1 mg/kg, 120 min, read-out: Concentration of ladostigil in plasma, mean ± STD (coefficient of variation)",1.6 ng/mL
same,concentration at 15 min,[4]; [8],3.74 ng/mL
same,concentration at 30 min,[4]; [8],18 ng/mL
same,concentration at 60 min,[4]; [8],8.29 ng/mL
same,concentration at 120 min,[4]; [8],2.88 ng/mL
same,concentration at 15 min,[4]; [9],9.3 ng/mL
same,concentration at 30 min,[4]; [9],34.8 ng/mL
same,concentration at 60 min,[4]; [9],97.6 ng/mL
same,concentration at 120 min,[4]; [9],44.4 ng/mL
same,concentration at 180 min,"[4]; normal healthy subjects aged 18-40, single oral dose 100 mg, 180 min",15.3 ng/mL
same,concentration at 15 min,[5]; [6],17.9 ng/g
same,concentration at 30 min,[5]; [6],9.3 ng/g
same,concentration at 60 min,[5]; [6],6.7 ng/g
same,concentration at 120 min,[5]; [6],4.9 ng/g
same,concentration at 15 min,[5]; [7],14.3 ng/g
same,concentration at 30 min,[5]; [7],11.9 ng/g
same,concentration at 60 min,[5]; [7],9.3 ng/g
same,concentration at 120 min,[5]; [7],7.4 ng/g
